Assay [1] deals with Staphylococcus aureus. As to the kind of experiment: Potency ratio, ratio of methiosetin MIC to compound MIC for Staphylococcus aureus EP167 by two fold serial broth dilution method. It counts as functional.
The next assay concerns Haemophilus influenzae. Nature of the assay: Antibacterial activity against Haemophilus influenzae by two fold serial broth dilution method. It counts as functional. A general note: Dilution methods test growth across graded concentrations, often in twofold steps.
For assay [2], the system named is Staphylococcus aureus. Nature of the assay: Antibacterial activity against Staphylococcus aureus EP167 by two fold serial broth dilution method. It counts as functional.
Another assay relates to Enterococcus faecalis. As to the kind of experiment: Antibacterial activity against Enterococcus faecalis at 64 ug/mL by two fold serial broth dilution method. It counts as functional, organism-based.
The subject of a further assay is Streptococcus pneumoniae. As to the kind of experiment: Antibacterial activity against Streptococcus pneumoniae at 64 ug/mL by two fold serial broth dilution method. It counts as functional, organism-based.
Assay [3] has as its system Staphylococcus aureus. As to the kind of experiment: Antibacterial activity against Staphylococcus aureus Smith at 64 ug/mL by two fold serial broth dilution method. It counts as functional, organism-based.
The test system of a further assay is Escherichia coli. Nature of the assay: Antibacterial activity against Escherichia coli at 64 ug/mL by two fold serial broth dilution method. It counts as functional, organism-based.

SMILES strings stand for the structures. Values after ≈ are worked out from the molar mass of the structure shown. Active and inactive are the calls of the source. The rule behind the calls is not given here.

As to `O=C1C=C[C@H](O)[C@@H]2[C@@H]1C[C@@]13SS[C@]4(C[C@@H]5C(=O)C=C[C@H](O)[C@H]5N4C1=O)C(=O)N23` [EPICORAZINE A], the Ratio with Staphylococcus aureus [1] was 8. In addition, the figures for the MIC against Haemophilus influenzae and with Staphylococcus aureus [2] were 0.5 µg/mL (≈ 1.19 µM) and 32 µg/mL (≈ 76.1 µM), respectively.

Turning to `CC(O)C1C(O)=C(C(=O)[C@H]2[C@@H]3CCCC[C@H]3C=C[C@H]2C)C(=O)N1C` (some centres undefined) [METHIOSETIN], the inhibition result in the assay on Enterococcus faecalis, in the assay on Streptococcus pneumoniae, with Staphylococcus aureus [3] and in the assay on Escherichia coli was “inactive” in each case. Besides, the figures for the MIC in the assay on Haemophilus influenzae and with Staphylococcus aureus [2] were 32 µg/mL (≈ 96 µM) and 256 µg/mL (≈ 768 µM), respectively.

The values above are taken from ChEMBL document CHEMBL2021773, “Isolation, structure elucidation, and antibacterial activity of methiosetin, a tetramic acid from a tropical sooty mold (Capnodium sp.)” (2012).
